Results on two molecules are retold here after patent publication US20240293405A1, “(1H-PYRROLO[2,3-B]PYRIDIN-1-YL)PYRIMIDIN-2-YL-AMINO-PHENYL-ACRYLAMIDE INHIBITORS OF EGFR FOR USE IN THE TREATMENT OF BRAIN TUMORS” (Dana-Farber Cancer Institute, Inc., priority 2021, published 2024).

The nature of data set [1]: Pharmacokinetics in rats (IV, PO). Particulars: rat, plasma, Compound 2 as metabolite. It counts as in vivo, rat. The source says:
Exposure was generally dose proportional.

Data set [2] deals with 468 human kinases and disease relevant mutant variants. As to the kind of experiment: Kinase selectivity binding panel (468 kinases). The following applies: 468 kinase panel, 1 μM free base. As to the method: (§1) Compound 1 and Compound 2 (major metabolite) were evaluated in a panel of 468 human kinases and disease relevant mutant variants. Compound 1 and Compound 2 bound to few non-mutant kinases at <1% of control. […] While there is some variability between Compound 1 and Compound 2, it is clear that both compounds are very effective at binding to a large panel of mutant kinases. […] Binding constant to wild type EGFR was 4.9 nM.

Data set [3] in a line: Cardiovascular function (telemetry). It counts as in vivo, dog. The following applies: plasma; dog, 100 mg/kg Compound 1 PO; M38 as metabolite; read-out: estimated single-dose Cmax. As to the method: This arrythmia was not associated with maximum plasma concentration (Cmax) or Tmax of either parent or metabolite. No definitive link to the test article could be identified. Given the unexplained reversible arrythmia in this high-dose (100 mg/kg) telemetry dog, routine electrocardiogram (ECG) monitoring in Phase 1 is recommended.

The nature of data set [4]: Brain and plasma exposure after 5 hour intravenous infusion. It counts as in vivo, Sprague Dawley rats. Particulars: for concentration at 5 h / Kp at 5 h / concentration at 1 h / concentration at 2 h / concentration at 3 h: male, Sprague Dawley, 3 mg/kg; for concentration at 5 h / concentration at 1 h / concentration at 2 h / concentration at 3 h: intravenous; for Kp at 5 h: iv, read-out: Brain/Plasma (ratios). As to the method: A single IV infustion for 5 hours was administered to each animal, which were then twice observed clinically (30 minutes to 1 hour post-posing and at the end of the study (TTerminal). Blood samples were collected at 5 time points from each animal over the 5 hour infusion period (5 minutes, 1 hour, 2, hours, 3 hours and TTerminal) and processed to plasma. Brains were collected at Tterminal (blotted, weighed, and snap frozen) and brain exposure was compared. […]

A short description of data set [5]: Oral dog 4-week toxicity study with toxicokinetics. It counts as in vivo, beagle dogs. The following applies: beagle, in vivo, dog Day 28 mean, Compound 2 as metabolite; for AUC(0-t): read-out: AUC0-24. On the procedure:
Compound 1 (0, 10, 30, and 100 mg/kg/day) was given orally, once daily by gavage, to male and female beagle dogs (4/sex) for up to 28 days. […] The cause of death in this high-dose male was attributed to myocardial degeneration. This lesion was not observed in any other dog on study. Increases in alkaline phosphatase, globulin, cholesterol, triglycerides and fibrinogen and decreased reticulocyte counts noted in the high-dose group at mid-study returned towards baseline by the end of the study following 11/12 days of recovery. Testicular changes at all doses (seminiferous epithelial vacuolation at 10 and 30 mg/kg and degeneration/atrophy at 100 mg/kg) were not reversible in this short-term study; the reversibility period was not long enough to assess reversibility of testicular changes.
The increases were generally dose-proportional or greater-than dose-proportional on Day 1 and Day 28. Gender difference was not observed. No significant accumulation of Compound 1 or Compound 2 was observed.
Thirty-two beagle dogs (conventional, naive) were divided into four groups. Each group consists of four male and four female. Group 1 beagle dogs were administered vehicle and groups 2-4 beagle dogs were administered Compound 1 at 10 mg/kg, 30 mg/kg, and 100 mg/kg, respectively, by oral gavage once daily for 28 consecutive days (Table 15). […] Cmax (ng/mL) and AUClast (hr*ng/mL) of Compound 1 on day 1 were obtained for groups 2-4 (Table 15).

A further data set deals with NSCLC brain metastases. As to the kind of experiment: NSCLC brain metastases in SCID mice. Particulars: 25 mg/kg; […].
A short description of data set [6]: Body weight over the course of treatment in mice. It counts as in vivo. Particulars: 25 mg/kg; study endpoint reached within one month.
Data set [7] concerns NCI-H1975 cells (EGFR L858R/T790M mutation). Briefly: Cell viability assay, NCI-H1975 (CellTiter-Glo). Type of data set: cell-based. The following applies: Homo sapiens, NCI-H1975, 72 h, read-out: IC50, cell viability. The source says: (§2) CellTier-Glo (Promega) assay kit (https://www.promega.com/resources/protocols/technical-bulletins/0/celltiter-glo-luminescentcell-viability-assay-protocol/) was used here.
(In general: In ATP-based viability assays light output follows the ATP content of the culture.)

For the next data set, the system named is P-gp, Bcrp. The following applies: previously published report; cited from earlier work.
For a further data set, the target named is PDGFRA (Homo sapiens, UniProt P16234). Briefly: Kinase binding constant (Kd). As to the method: (§3) EGFR amplifications and/or mutations are common in GBM, estimated to occur in over 50% of patients.
as §1

The target in a further data set is ALK (Homo sapiens, UniProt Q9UM73). Briefly: Kinase binding constant (Kd). On the procedure:
as §3, §1

In a further data set the target is PDGFRB (Homo sapiens, UniProt P09619). Briefly: Kinase binding constant (Kd). As to the method:
as §3, §1

For data set [8], the system named is PC-9 cells (EGFR exon 19 deletion). As to the kind of experiment: Cell viability assay, PC-9 (CellTiter-Glo). It counts as cell-based. Particulars: Homo sapiens, PC-9, read-out: IC50, cell viability.
Source text: as §2

Another data set relates to 293-EGFRvIII cells. As to the kind of experiment: Cell viability of 293-EGFRvIII cells (CellTiter-Glo). Type of data set: cell-based, human. The following applies: Homo sapiens, 72 h, read-out: IC50, viability of 293-EGFRvIII cells. As to the method:
(§4) Cells were seeded in 96-well plates at a density of 1,000 cells per well and treated with two-fold serial dilutions of compounds with a starting concentration of 20 μM. Cell viability was assessed after three days of treatment by CellTiter-Glo (Promega). Curve fitting analysis and IC50 value determination were performed using GraphPad Prism 8.

The next data set has as its system U251-EGFRvIII cells. Briefly: Viability/proliferation of U251-EGFRvIII cells. It counts as cell-based, human. As to the method:
as §4
In parallel, the conventional human GBM U251 cell line was used as a surrogate model for both in vitro and in vivo studies. U251 cells were engineered to stably express EGFRvIII (U251-EGFRvIII) via retroviral-mediated gene transfer.

[9] abbreviates: 3 mg/kg IV infusion over 5 h, 5 h, individual animal, Compound 2 as metabolite in Compound 1-dosed rats.
Where [10] appears, read: female, 10 mg/kg Compound 1 PO, F.
Setting [11] is: female, 30 mg/kg Compound 1 PO, F.
Where [12] appears, read: male, 10 mg/kg Compound 1 PO, M.
Setting [13] is: male, 30 mg/kg Compound 1 PO, M.

“And” between values parts separate entries of the source, which are not always exact repeats. Identical values can stand only once. Like-named read-outs stand apart in the source and are kept apart here.

One may read the half-life as how long it takes for the measured level to halve. For orientation: Tmax means the time at which the peak concentration occurs. One may read the Cmax as the highest concentration seen after dosing. As usually defined, the Kd is the equilibrium constant for the complex coming apart. A low value points to higher affinity.

PDGFRA, sequence (P16234 24-1089): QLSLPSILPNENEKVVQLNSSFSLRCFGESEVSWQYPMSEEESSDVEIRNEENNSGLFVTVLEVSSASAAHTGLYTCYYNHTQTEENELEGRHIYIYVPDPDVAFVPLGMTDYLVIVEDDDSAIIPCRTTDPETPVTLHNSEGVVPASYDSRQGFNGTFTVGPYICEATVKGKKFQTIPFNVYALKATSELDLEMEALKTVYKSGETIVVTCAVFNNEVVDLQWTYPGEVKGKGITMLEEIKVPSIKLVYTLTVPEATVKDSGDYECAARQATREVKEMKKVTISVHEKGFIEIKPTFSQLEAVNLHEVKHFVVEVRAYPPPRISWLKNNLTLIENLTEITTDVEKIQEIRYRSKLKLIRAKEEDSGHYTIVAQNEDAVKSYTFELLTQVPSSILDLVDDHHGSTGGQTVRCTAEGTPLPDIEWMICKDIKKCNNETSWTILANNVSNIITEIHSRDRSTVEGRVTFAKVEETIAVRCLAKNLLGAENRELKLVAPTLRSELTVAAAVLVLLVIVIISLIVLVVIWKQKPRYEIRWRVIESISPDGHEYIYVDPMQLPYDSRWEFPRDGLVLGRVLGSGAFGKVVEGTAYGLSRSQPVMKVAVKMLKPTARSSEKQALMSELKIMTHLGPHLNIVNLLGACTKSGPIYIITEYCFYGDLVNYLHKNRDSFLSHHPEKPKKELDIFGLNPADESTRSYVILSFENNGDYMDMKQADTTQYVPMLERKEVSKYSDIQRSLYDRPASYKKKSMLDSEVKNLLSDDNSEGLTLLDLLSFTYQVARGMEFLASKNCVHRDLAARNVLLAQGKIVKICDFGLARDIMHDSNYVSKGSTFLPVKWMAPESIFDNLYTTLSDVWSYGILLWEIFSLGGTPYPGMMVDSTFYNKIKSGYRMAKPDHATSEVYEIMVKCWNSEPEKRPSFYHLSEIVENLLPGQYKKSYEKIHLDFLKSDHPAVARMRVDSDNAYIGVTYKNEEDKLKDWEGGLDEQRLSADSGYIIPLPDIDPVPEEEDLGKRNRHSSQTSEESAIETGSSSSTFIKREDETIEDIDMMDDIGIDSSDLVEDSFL
ALK, sequence (Q9UM73 19-1620): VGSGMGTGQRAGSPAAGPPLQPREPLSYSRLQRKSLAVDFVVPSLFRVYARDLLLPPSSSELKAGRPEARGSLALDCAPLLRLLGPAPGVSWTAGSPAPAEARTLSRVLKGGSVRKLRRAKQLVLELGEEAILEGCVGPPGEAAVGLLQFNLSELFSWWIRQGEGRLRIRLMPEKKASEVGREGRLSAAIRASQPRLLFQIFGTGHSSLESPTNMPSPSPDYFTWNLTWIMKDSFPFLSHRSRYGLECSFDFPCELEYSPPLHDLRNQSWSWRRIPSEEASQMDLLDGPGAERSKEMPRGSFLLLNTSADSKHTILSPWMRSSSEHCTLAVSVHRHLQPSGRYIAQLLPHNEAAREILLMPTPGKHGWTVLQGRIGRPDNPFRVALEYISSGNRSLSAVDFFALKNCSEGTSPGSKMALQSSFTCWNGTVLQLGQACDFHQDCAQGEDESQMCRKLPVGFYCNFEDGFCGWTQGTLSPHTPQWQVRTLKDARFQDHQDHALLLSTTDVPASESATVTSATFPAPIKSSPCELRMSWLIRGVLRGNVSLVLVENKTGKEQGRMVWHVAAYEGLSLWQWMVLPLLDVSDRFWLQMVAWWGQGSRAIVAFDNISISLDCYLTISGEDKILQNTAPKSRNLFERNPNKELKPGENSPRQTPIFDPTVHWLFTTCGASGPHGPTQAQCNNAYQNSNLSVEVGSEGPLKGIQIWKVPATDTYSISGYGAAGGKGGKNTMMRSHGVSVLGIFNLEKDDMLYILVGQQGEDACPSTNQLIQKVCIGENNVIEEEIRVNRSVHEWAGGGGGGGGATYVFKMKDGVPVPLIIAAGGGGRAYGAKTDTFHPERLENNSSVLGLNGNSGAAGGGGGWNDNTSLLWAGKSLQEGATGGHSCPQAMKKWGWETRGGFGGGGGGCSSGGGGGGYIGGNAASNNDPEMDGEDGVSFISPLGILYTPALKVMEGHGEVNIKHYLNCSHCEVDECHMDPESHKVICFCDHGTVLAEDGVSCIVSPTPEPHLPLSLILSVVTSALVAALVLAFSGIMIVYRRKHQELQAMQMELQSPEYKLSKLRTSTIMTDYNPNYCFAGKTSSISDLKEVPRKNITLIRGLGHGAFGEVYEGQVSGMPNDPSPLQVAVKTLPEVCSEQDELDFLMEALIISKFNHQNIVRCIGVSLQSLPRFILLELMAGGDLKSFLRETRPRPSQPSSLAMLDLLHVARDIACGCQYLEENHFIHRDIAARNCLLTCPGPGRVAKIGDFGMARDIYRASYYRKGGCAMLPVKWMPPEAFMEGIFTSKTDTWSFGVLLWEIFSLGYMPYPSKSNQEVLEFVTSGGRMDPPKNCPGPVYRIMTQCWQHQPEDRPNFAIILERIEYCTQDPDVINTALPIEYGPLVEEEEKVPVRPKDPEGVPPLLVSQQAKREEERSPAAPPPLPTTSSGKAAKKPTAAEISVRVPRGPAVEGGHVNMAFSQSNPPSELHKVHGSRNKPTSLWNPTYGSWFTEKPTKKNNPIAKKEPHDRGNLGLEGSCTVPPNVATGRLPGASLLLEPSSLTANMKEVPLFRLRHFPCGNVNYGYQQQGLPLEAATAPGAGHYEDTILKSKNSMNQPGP
PDGFRB, sequence (P09619 33-1106): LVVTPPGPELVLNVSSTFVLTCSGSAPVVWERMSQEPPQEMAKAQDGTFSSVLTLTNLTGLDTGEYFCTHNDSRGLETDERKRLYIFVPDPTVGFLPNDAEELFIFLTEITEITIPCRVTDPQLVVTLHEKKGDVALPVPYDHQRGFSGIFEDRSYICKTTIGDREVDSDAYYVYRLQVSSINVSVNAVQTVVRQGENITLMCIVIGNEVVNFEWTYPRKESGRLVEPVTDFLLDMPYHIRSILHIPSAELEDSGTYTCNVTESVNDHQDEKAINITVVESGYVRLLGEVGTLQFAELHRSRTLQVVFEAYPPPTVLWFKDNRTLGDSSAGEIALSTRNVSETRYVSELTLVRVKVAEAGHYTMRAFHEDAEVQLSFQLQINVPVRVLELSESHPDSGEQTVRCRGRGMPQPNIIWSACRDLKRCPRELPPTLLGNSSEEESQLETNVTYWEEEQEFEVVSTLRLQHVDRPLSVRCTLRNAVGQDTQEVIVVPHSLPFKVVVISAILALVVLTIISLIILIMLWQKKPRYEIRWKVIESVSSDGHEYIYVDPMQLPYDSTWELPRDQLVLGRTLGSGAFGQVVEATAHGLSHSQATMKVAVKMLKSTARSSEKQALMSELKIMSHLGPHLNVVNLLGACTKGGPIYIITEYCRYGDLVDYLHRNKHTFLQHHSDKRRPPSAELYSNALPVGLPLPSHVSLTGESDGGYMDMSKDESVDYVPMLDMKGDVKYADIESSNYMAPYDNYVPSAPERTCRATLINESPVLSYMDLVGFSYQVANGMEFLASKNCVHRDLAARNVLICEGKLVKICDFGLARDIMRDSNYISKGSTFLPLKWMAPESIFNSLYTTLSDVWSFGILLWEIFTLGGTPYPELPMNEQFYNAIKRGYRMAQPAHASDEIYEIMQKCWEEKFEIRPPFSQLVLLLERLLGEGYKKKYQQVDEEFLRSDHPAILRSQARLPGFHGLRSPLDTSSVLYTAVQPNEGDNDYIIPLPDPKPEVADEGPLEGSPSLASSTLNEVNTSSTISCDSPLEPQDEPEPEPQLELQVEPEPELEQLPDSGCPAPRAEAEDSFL

Take `C=CC(=O)Nc1cc(Nc2nccc(-n3ccc4cccnc43)n2)c(OC)cc1N(C)CCNC` [Compound 2, N-(5-((4-(1H-pyrrolo[2,3-b]pyridin-1-yl)pyrimidin-2-yl)amino)-4-methoxy-2-(methyl(2-(methylamino)ethyl)amino)phenyl)acrylamide]: the half-life in [1] was roughly 9 h. Moreover, the Tmax in [1] (po) is roughly 7 h. The “targeted non-mutant kinases (bound at <1% of control)” value in data set [2] is “ERBB2, JAK3 (JH1-domain-catalytic), MKNK2, MTOR, OSR1 and TNK1”. Further, the Cmax in data set [3] is ~367 ng/mL and ~750 nM; in [5] (setting [10]), 242 ng/mL; in [5] (setting [11]), 161 ng/mL; in data set [5] (setting [12]) it was 143 ng/mL; in data set [5] (setting [13]), 263 ng/mL. The “Plasma Concentration” value was “BLQ” in data set [4] (3 mg/kg IV infusion over 5 h, 0.083 h, individual animal, Compound 2 as metabolite in Compound 1-dosed rats); “BLQ” in data set [4] (3 mg/kg IV infusion over 5 h, 0.083 h, mean n=6, Compound 2 as metabolite); 3.47 ng/mL (2×) and 3.14 ng/mL and 3.28 ng/mL and 2.71 ng/mL in data set [4] (3 mg/kg IV infusion over 5 h, 1 h, individual animal, Compound 2 as metabolite in Compound 1-dosed rats); 7.75 ng/mL and 6.99 ng/mL and 8.41 ng/mL and 7.39 ng/mL and 6.20 ng/mL in [4] (3 mg/kg IV infusion over 5 h, 2 h, individual animal, Compound 2 as metabolite in Compound 1-dosed rats); 12.9 ng/mL and 10.6 ng/mL and 12.7 ng/mL and 12.5 ng/mL and 12.3 ng/mL in data set [4] (3 mg/kg IV infusion over 5 h, 3 h, individual animal, Compound 2 as metabolite in Compound 1-dosed rats); 18.1 ng/mL and 19.6 ng/mL and 18.9 ng/mL and 20.4 ng/mL and 16.8 ng/mL in data set [4] (setting [9]). For the same molecule, the “Brain Tissue Concentration” value in data set [4] (setting [9]) is 23.6 ng/g and 20.9 ng/g and 21.0 ng/g and 21.6 ng/g and 19.8 ng/g. Further, the “Brain/Plasma (ratios)” value in data set [4] (setting [9]) is 1.30 and 1.07 and 1.11 and 1.06. Further, the “brain exposure relative to plasma” value in [4] (Compound 2 as metabolite, rat) is listed as “essentially equal to plasma”. Besides, the concentration at 5 h in [4] (rat, brain, 3 mg/kg IV infusion over 5 h, 5 h, individual animal, Compound 2 as metabolite in Compound 1-dosed rats, read-out: Brain Tissue Concentration) came to 24.5 ng/g; in [4] (rat, brain, 3 mg/kg IV infusion over 5 h, 5 h, mean n=6, Compound 2 as metabolite, read-out: Brain Tissue Concentration) it was 21.9 ng/g; in data set [4] (rat, plasma, 3 mg/kg IV infusion over 5 h, 5 h, individual animal, Compound 2 as metabolite in Compound 1-dosed rats, read-out: Plasma Concentration) it was 18.2 ng/mL; in [4] (rat, plasma, 3 mg/kg IV infusion over 5 h, 5 h, mean n=6, Compound 2 as metabolite, read-out: Plasma Concentration), 18.7 ng/mL. The Kp at 5 h turned out to be 1.35 in data set [4] (rat, brain, 3 mg/kg IV infusion over 5 h, 5 h, individual animal, Compound 2 as metabolite in Compound 1-dosed rats) and 1.18 in data set [4] (rat, brain, 3 mg/kg IV infusion over 5 h, 5 h, mean n=6, Compound 2 as metabolite). Besides, the concentration at 1 h stood at 3.24 ng/mL in data set [4] (rat, plasma, 3 mg/kg IV infusion over 5 h, 1 h, individual animal, Compound 2 as metabolite in Compound 1-dosed rats) and 3.22 ng/mL in data set [4] (rat, plasma, 3 mg/kg IV infusion over 5 h, 1 h, mean n=6, Compound 2 as metabolite). Also, the concentration at 2 h worked out at 5.62 ng/mL in data set [4] (rat, plasma, 3 mg/kg IV infusion over 5 h, 2 h, individual animal, Compound 2 as metabolite in Compound 1-dosed rats) and 7.06 ng/mL in data set [4] (rat, plasma, 3 mg/kg IV infusion over 5 h, 2 h, mean n=6, Compound 2 as metabolite). In addition, the concentration at 3 h in [4] (rat, plasma, 3 mg/kg IV infusion over 5 h, 3 h, individual animal, Compound 2 as metabolite in Compound 1-dosed rats) amounted to 12.9 ng/mL; in data set [4] (rat, plasma, 3 mg/kg IV infusion over 5 h, 3 h, mean n=6, Compound 2 as metabolite), 12.3 ng/mL. Also, the AUC(0-t) in data set [5] (setting [10]) came out at 3360 ng·h/mL; in data set [5] (setting [11]) it was 1790 ng·h/mL; in data set [5] (setting [12]), 1420 ng·h/mL; in data set [5] (setting [13]) it was 2980 ng·h/mL.

In the case of `C=CC(=O)Nc1cc(Nc2nccc(-c3cn(C)c4ccccc34)n2)c(OC)cc1N(C)CCN(C)C` [Osimertinib, reference compound], the “time at which study endpoint was reached” value with NSCLC brain metastases is recorded as 4 weeks. Besides, the “body weight over the course of treatment” value in data set [6] was “significant body weight loss”. The IC50 in data set [7] came out at […]; in data set [8], 18.1 nM; with 293-EGFRvIII cells, 2190 nM; with U251-EGFRvIII cells (Homo sapiens, read-out: IC50, viability of U251-EGFRvIII cells), […]; in the data set with U251-EGFRvIII cells (Homo sapiens, read-out: IC50 on U251-EGFRvIII cell proliferation) it was 2450 nM; with U251-EGFRvIII cells (read-out: IC50, viability of U251-EGFRvIII cells), […]. For the same molecule, the “Efflux Liability” value with P-gp, Bcrp is recorded as “P-gp, Bcrp”. Besides, the Kd at PDGFRA amounted to 740 nM; at ALK it was 69 nM; on PDGFRB it was 1500 nM.
